Source: patent US10676792B2, “Prognostic and diagnostic methods for colorectal cancer” (The Regents of the University of California, priority 2015, dated 2020)

Tested on: P-Y1068-EGFR
Test: Western blot analysis of P-Y1068-EGFR in EGF-stimulated HCT15 cells treated with DGK inhibitor
Type: cell-based, human
Details: versus DMSO control, pre-incubated 30 min
Procedure: Cells were plated in 6 or 10 cm dishes and starved for 2 h at 37 C in PBS. After resting, cells were EGF-stimulated for different time 3, 10 or 30 min. Cells were lysed with ice-cold 2% NP40 supplemented with protease and phosphatase inhibitors [10 mM sodium fluoride, 2 mM sodium orthovanadate, 0.5 mM EDTA, 2 mM phenyl-methylsulfonyl fluoride, 1 mM sodium molybdate, aprotonin (10 mg/ml), leupeptin (10 mg/ml), pepstatin (1 mg/ml)]. After 30 min on ice, lysates were centrifuged and supernatant were mix with 2× sample buffer. Protein lysates were separated on acrylamide gel 10%, transferred on PVDF membrane and incubated with primary antibodies of interest. Inhibitors such as Rottlerin (20 μM) and DGK were pre-incubated for 30 min before stimulation. Western blots were visualized with enhanced chemo-luminescence and imaging on a Fuji LAS 4000 image station (GE Healthcare). The protein bands in Western blots were quantified with Multi Gauge software, and densitometry (pixel intensity) was determined within the linear range of the exposure. Amounts of the proteins of interest were typically presented as a ratio of the indicated loading control. Values were then normalized to an indicated sample and noted as a fold difference. Results represent at least three independent experiments.

For O=c1c2ccccc2[nH]c(=S)n1CCN1CCC(=C(c2ccc(F)cc2)c2ccc(F)cc2)CC1 [R59949], the P-Y1068-EGFR levels was “decreased levels”.
